Results as given in ChEMBL document CHEMBL1201862, “PubChem BioAssay data set” (2004).
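Grown in 96-well plates, cells were treated for 48 hours with each compound at five concentrations. Insufficient inhibition: endpoint recorded as highest concentration tested. GI50 = concentration required for 50% inhibition of growth.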 Activity calls are given as the source filed them. Rule as the data show it: active = GI50 up to about 1.1 µM and inactive = higher.

Experiments:
Experiment in all cases: NCI anticancer screen, dose series, 48 h
A498 = test system: A498
SK-OV-3 = test system: SK-OV-3
HCT-15 = test system: HCT-15
MCF7 = test system: MCF7
PC-3 = test system: PC-3
RXF 393 = test system: RXF 393
NCI-H522 = test system: NCI-H522
DU-145 = test system: DU-145
KM12 = test system: KM12
A549 = test system: A549
IGROV-1 = test system: IGROV-1
LOX IMVI = test system: LOX IMVI
T47D = test system: T47D
Hs-578T = test system: Hs-578T
EKVX = test system: EKVX
Malme-3M = test system: Malme-3M
CAKI-1 = test system: CAKI-1
BT-549 = test system: BT-549
TK-10 = test system: TK-10
RPMI-8226 = test system: RPMI-8226
COLO 205 = test system: COLO 205
MDA-MB-435 = test system: MDA-MB-435
NCI-H226 = test system: NCI-H226
SNB-75 = test system: SNB-75
SK-MEL-5 = test system: SK-MEL-5
NCI-H23 = test system: NCI-H23
M14 = test system: M14
SF-539 = test system: SF-539
NCI/ADR-RES = test system: NCI/ADR-RES
SK-MEL-28 = test system: SK-MEL-28
OVCAR-8 = test system: OVCAR-8
786-0 = test system: 786-0
OVCAR-5 = test system: OVCAR-5
HOP-62 = test system: HOP-62
SNB-19 = test system: SNB-19
UACC-257 = test system: UACC-257
HT-29 = test system: HT-29
K562 = test system: K562
ACHN = test system: ACHN
UO-31 = test system: UO-31
SF-295 = test system: SF-295
MOLT-4 = test system: MOLT-4
UACC-62 = test system: UACC-62
SN12C = test system: SN12C
SW-620 = test system: SW-620
MDA-MB-231 = test system: MDA-MB-231
SR = test system: SR
OVCAR-3 = test system: OVCAR-3
U-251 = test system: U-251
SK-MEL-2 = test system: SK-MEL-2
SF-268 = test system: SF-268
HCT-116 = test system: HCT-116
HCC 2998 = test system: HCC 2998
MDA-N = test system: MDA-N
HOP-92 = test system: HOP-92
OVCAR-4 = test system: OVCAR-4
NCI-H460 = test system: NCI-H460
HL-60 = test system: HL-60
CCRF-CEM = test system: CCRF-CEM

## CN(C)C1C(=O)C(C(N)=O)=C(O)C2(O)C(O)=C3C(=O)c4c(O)cccc4C(C)(O)C3CC12 (stereo unspecified)
A498
  GI50: 52.2 µM (inactive)
SK-OV-3
  GI50: 55.6 µM (inactive)
HCT-15
  GI50: 81.1 µM
MCF7
  GI50: > 100 µM (inactive)
PC-3
  GI50: 76.7 µM (inactive)
RXF 393
  GI50: 66.5 µM (inactive)
NCI-H522
  GI50: 86.7 µM (inactive)
DU-145
  GI50: > 100 µM (inactive)
KM12
  GI50: > 100 µM (inactive)
A549
  GI50: 86.1 µM (inactive)
IGROV-1
  GI50: 93.3 µM (inactive)
LOX IMVI
  GI50: 59 µM (inactive)
T47D
  GI50: > 100 µM (inactive)
Hs-578T
  GI50: 63.4 µM (inactive)
EKVX
  GI50: > 100 µM (inactive)
Malme-3M
  GI50: 86.1 µM (inactive)
CAKI-1
  GI50: 62.4 µM (inactive)
BT-549
  GI50: 64 µM (inactive)
TK-10
  GI50: > 100 µM (inactive)
RPMI-8226
  GI50: 81.7 µM (inactive)

## O=C(Cn1c2ccc(Br)cc2c2nc3ccccc3nc21)N/N=C/c1ccccc1
COLO 205
  GI50: > 100 µM (inactive)
A498
  GI50: > 100 µM (inactive)
MDA-MB-435
  GI50: > 100 µM (inactive)
NCI-H226
  GI50: > 100 µM (inactive)
SNB-75
  GI50: 83.9 µM (inactive)
SK-OV-3
  GI50: 31.1 µM (inactive)
SK-MEL-5
  GI50: > 100 µM (inactive)
NCI-H23
  GI50: > 100 µM (inactive)
M14
  GI50: > 100 µM (inactive)
MCF7
  GI50: > 100 µM (inactive)
PC-3
  GI50: > 100 µM (inactive)
SF-539
  GI50: 12.9 µM (inactive)
NCI/ADR-RES
  GI50: > 100 µM (inactive)
SK-MEL-28
  GI50: > 100 µM (inactive)
RXF 393
  GI50: 34.9 µM (inactive)
OVCAR-8
  GI50: > 100 µM (inactive)
786-0
  GI50: 12.3 µM (inactive)
DU-145
  GI50: > 100 µM (inactive)
OVCAR-5
  GI50: > 100 µM (inactive)
KM12
  GI50: > 100 µM (inactive)
HOP-62
  GI50: 19.1 µM (inactive)
A549
  GI50: > 100 µM (inactive)
IGROV-1
  GI50: > 100 µM (inactive)
SNB-19
  GI50: 79.3 µM (inactive)
T47D
  GI50: > 100 µM (inactive)
UACC-257
  GI50: > 100 µM (inactive)
HT-29
  GI50: > 100 µM (inactive)
K562
  GI50: 43.4 µM (inactive)
ACHN
  GI50: > 100 µM (inactive)
EKVX
  GI50: > 100 µM (inactive)
UO-31
  GI50: > 100 µM (inactive)
SF-295
  GI50: 16.3 µM (inactive)
MOLT-4
  GI50: > 10 µM (inactive)
UACC-62
  GI50: 72.9 µM (inactive)
SN12C
  GI50: > 100 µM (inactive)
SW-620
  GI50: > 100 µM (inactive)
MDA-MB-231
  GI50: > 100 µM (inactive)
SR
  GI50: 78.2 µM (inactive)
OVCAR-3
  GI50: > 100 µM (inactive)
U-251
  GI50: 85.7 µM (inactive)
SK-MEL-2
  GI50: 83.6 µM (inactive)
CAKI-1
  GI50: > 100 µM (inactive)
BT-549
  GI50: > 100 µM (inactive)
SF-268
  GI50: 87.3 µM (inactive)
TK-10
  GI50: > 100 µM (inactive)
RPMI-8226
  GI50: > 10 µM (inactive)

## Cc1ccc(Nc2nc3c(=O)n(C)c(=O)n(C)c3nc2Nc2ccc(C)cc2)cc1
COLO 205
  GI50: 4.67 µM (inactive)
A498
  GI50: 16.5 µM (inactive)
MDA-MB-435
  GI50: 12.1 µM (inactive)
NCI-H226
  GI50: 28.8 µM (inactive)
SNB-75
  GI50: 15.4 µM (inactive)
SK-OV-3
  GI50: 21.9 µM (inactive)
SK-MEL-5
  GI50: 16.4 µM (inactive)
NCI-H23
  GI50: 15.9 µM (inactive)
HCT-15
  GI50: 3.32 µM
HCT-116
  GI50: 9.27 µM (inactive)
HCC 2998
  GI50: 17.5 µM (inactive)
MDA-N
  GI50: 11.3 µM (inactive)
PC-3
  GI50: 14.7 µM (inactive)
SF-539
  GI50: 13.5 µM (inactive)
NCI/ADR-RES
  GI50: 17.2 µM (inactive)
SK-MEL-28
  GI50: 16.7 µM (inactive)
RXF 393
  GI50: 10.3 µM (inactive)
OVCAR-8
  GI50: 13.6 µM (inactive)
NCI-H522
  GI50: 1.15 µM (inactive)
786-0
  GI50: 6.04 µM (inactive)
DU-145
  GI50: 32.4 µM (inactive)
OVCAR-5
  GI50: 16.4 µM (inactive)
KM12
  GI50: 16.4 µM (inactive)
HOP-62
  GI50: 18.9 µM (inactive)
A549
  GI50: 19.9 µM (inactive)
IGROV-1
  GI50: 15 µM (inactive)
SNB-19
  GI50: 31.3 µM (inactive)
LOX IMVI
  GI50: 10.1 µM (inactive)
T47D
  GI50: 15.5 µM (inactive)
UACC-257
  GI50: 15.7 µM (inactive)
Hs-578T
  GI50: 25.8 µM (inactive)
HT-29
  GI50: 10.4 µM (inactive)
K562
  GI50: 6.56 µM (inactive)
ACHN
  GI50: 3.46 µM (inactive)
EKVX
  GI50: 16 µM (inactive)
HOP-92
  GI50: 11.4 µM (inactive)
UO-31
  GI50: 12.1 µM (inactive)
SF-295
  GI50: 20.8 µM (inactive)
OVCAR-4
  GI50: 11.1 µM (inactive)
MOLT-4
  GI50: 14.8 µM (inactive)
UACC-62
  GI50: 12.3 µM (inactive)
SN12C
  GI50: 15.5 µM (inactive)
SW-620
  GI50: 1.74 µM (inactive)
NCI-H460
  GI50: 28.8 µM (inactive)
MDA-MB-231
  GI50: 13.7 µM (inactive)
SR
  GI50: 5.38 µM (inactive)
U-251
  GI50: 16.3 µM (inactive)
SK-MEL-2
  GI50: 17.8 µM (inactive)
HL-60
  GI50: 9.66 µM (inactive)
Malme-3M
  GI50: 14.9 µM (inactive)
CAKI-1
  GI50: 16.4 µM (inactive)
CCRF-CEM
  GI50: 2.3 µM (inactive)
SF-268
  GI50: 16 µM (inactive)
TK-10
  GI50: 16.4 µM (inactive)
RPMI-8226
  GI50: 7.62 µM (inactive)
